Data from PubChem BioAssay (NCI).
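Test compounds were applied to cells in 96-well plates for 48 hours at 5 doses. TGI is the concentration that stops growth completely.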

Key:
Assay in all cases: inhibition of tumour cell growth, NCI panel, 48 h
786-0 renal = system: 786-0 renal
A498 renal = system: A498 renal
A549 NSCLC = system: A549 NSCLC
ACHN renal = system: ACHN renal
CAKI-1 renal = system: CAKI-1 renal
CCRF-CEM leukemia = system: CCRF-CEM leukemia
COLO 205 colon = system: COLO 205 colon
DLD-1 colon = system: DLD-1 colon
DMS 114 small cell lung = system: DMS 114 small cell lung
DMS 273 small cell lung = system: DMS 273 small cell lung
EKVX NSCLC = system: EKVX NSCLC
HCC-2998 colon = system: HCC-2998 colon
HCT-15 colon = system: HCT-15 colon
HL-60(TB) leukemia = system: HL-60(TB) leukemia
HOP-18 NSCLC = system: HOP-18 NSCLC
HOP-62 NSCLC = system: HOP-62 NSCLC
HT29 colon = system: HT29 colon
IGROV1 ovarian = system: IGROV1 ovarian
K-562 leukemia = system: K-562 leukemia
KM12 colon = system: KM12 colon
KM20L2 colon = system: KM20L2 colon
LOX IMVI melanoma = system: LOX IMVI melanoma
LXFL 529 NSCLC = system: LXFL 529 NSCLC
M14 melanoma = system: M14 melanoma
M19-MEL melanoma = system: M19-MEL melanoma
MALME-3M melanoma = system: MALME-3M melanoma
MOLT-4 leukemia = system: MOLT-4 leukemia
NCI-H226 lung = system: NCI-H226 lung
NCI-H23 lung = system: NCI-H23 lung
NCI-H460 lung = system: NCI-H460 lung
NCI-H522 lung = system: NCI-H522 lung
OVCAR-3 ovarian = system: OVCAR-3 ovarian
OVCAR-4 ovarian = system: OVCAR-4 ovarian
OVCAR-8 ovarian = system: OVCAR-8 ovarian
RPMI-8226 leukemia = system: RPMI-8226 leukemia
RXF 393 renal = system: RXF 393 renal
RXF-631 renal = system: RXF-631 renal
SF-268 CNS = system: SF-268 CNS
SF-295 CNS = system: SF-295 CNS
SF-539 CNS = system: SF-539 CNS
SK-MEL-2 melanoma = system: SK-MEL-2 melanoma
SK-MEL-28 melanoma = system: SK-MEL-28 melanoma
SK-MEL-5 melanoma = system: SK-MEL-5 melanoma
SK-OV-3 ovarian = system: SK-OV-3 ovarian
SN12C renal = system: SN12C renal
SNB-19 CNS = system: SNB-19 CNS
SNB-75 CNS = system: SNB-75 CNS
SNB-78 CNS = system: SNB-78 CNS
SR leukemia = system: SR leukemia
SW-620 colon = system: SW-620 colon
TK-10 renal = system: TK-10 renal
U251 CNS = system: U251 CNS
UACC-257 melanoma = system: UACC-257 melanoma
UACC-62 melanoma = system: UACC-62 melanoma
UO-31 renal = system: UO-31 renal
HCT-116 colon = system: HCT-116 colon
HOP-92 NSCLC = system: HOP-92 NSCLC
OVCAR-5 ovarian = system: OVCAR-5 ovarian
XF 498 CNS = system: XF 498 CNS

With `CCN(CC)C(=S)N/N=C(\C)c1ccccc1O` the TGI (786-0 renal) was over 100 µM, the TGI (A498 renal) was over 100 µM and the TGI (A549 NSCLC) was 43.4 µM. The TGI (ACHN renal) was 61.4 µM, the TGI (CAKI-1 renal) was 55.3 µM and the TGI (CCRF-CEM leukemia) was 78 µM. The TGI (COLO 205 colon) was over 100 µM, the TGI (DLD-1 colon) was over 100 µM and the TGI (DMS 114 small cell lung) was over 100 µM. It also gave a TGI (DMS 273 small cell lung) of over 100 µM, a TGI (EKVX NSCLC) of over 100 µM and a TGI (HCC-2998 colon) of over 100 µM. For the same compound, the TGI (HCT-15 colon) was over 100 µM, the TGI (HL-60(TB) leukemia) was over 100 µM and the TGI (HOP-18 NSCLC) was 86.5 µM. For the same compound, the TGI (HOP-62 NSCLC) was over 100 µM, the TGI (HT29 colon) was 48 µM and the TGI (IGROV1 ovarian) was over 100 µM. For the same compound, the TGI (K-562 leukemia) was over 100 µM, the TGI (KM12 colon) was over 100 µM and the TGI (KM20L2 colon) was 59.2 µM. For the same compound, the TGI (LOX IMVI melanoma) was 77.4 µM, the TGI (LXFL 529 NSCLC) was over 100 µM and the TGI (M14 melanoma) was 51.3 µM. It also gave a TGI (M19-MEL melanoma) of over 100 µM, a TGI (MALME-3M melanoma) of over 100 µM and a TGI (MOLT-4 leukemia) of over 100 µM. The TGI (NCI-H226 lung) was 56.8 µM, the TGI (NCI-H23 lung) was over 100 µM and the TGI (NCI-H460 lung) was 97.4 µM. It also gave a TGI (NCI-H522 lung) of 33 µM, a TGI (OVCAR-3 ovarian) of over 100 µM and a TGI (OVCAR-4 ovarian) of over 100 µM. The TGI (OVCAR-8 ovarian) was over 100 µM, the TGI (RPMI-8226 leukemia) was over 100 µM and the TGI (RXF 393 renal) was over 100 µM. It also gave a TGI (RXF-631 renal) of over 100 µM, a TGI (SF-268 CNS) of over 100 µM and a TGI (SF-295 CNS) of over 100 µM. For the same compound, the TGI (SF-539 CNS) was 54.4 µM, the TGI (SK-MEL-2 melanoma) was 80.7 µM and the TGI (SK-MEL-28 melanoma) was over 100 µM. For the same compound, the TGI (SK-MEL-5 melanoma) was 51.9 µM, the TGI (SK-OV-3 ovarian) was 79 µM and the TGI (SN12C renal) was over 100 µM. For the same compound, the TGI (SNB-19 CNS) was over 100 µM, the TGI (SNB-75 CNS) was over 100 µM and the TGI (SNB-78 CNS) was over 100 µM. The TGI (SR leukemia) was over 100 µM, the TGI (SW-620 colon) was over 100 µM and the TGI (TK-10 renal) was over 100 µM. It also gave a TGI (U251 CNS) of 89 µM, a TGI (UACC-257 melanoma) of over 100 µM and a TGI (UACC-62 melanoma) of over 100 µM. For the same compound, the TGI (UO-31 renal) was 61.9 µM.
`Cc1cccc(C)c1NC(=O)C(=O)CC(=O)CO` was tested, and the TGI (786-0 renal) was over 100 µM, the TGI (A498 renal) was over 100 µM and the TGI (A549 NSCLC) was over 100 µM. It also gave a TGI (ACHN renal) of over 100 µM, a TGI (CAKI-1 renal) of over 100 µM and a TGI (CCRF-CEM leukemia) of over 100 µM. For the same compound, the TGI (COLO 205 colon) was over 100 µM, the TGI (DLD-1 colon) was over 100 µM and the TGI (DMS 114 small cell lung) was over 100 µM. It also gave a TGI (DMS 273 small cell lung) of over 100 µM, a TGI (EKVX NSCLC) of over 100 µM and a TGI (HCC-2998 colon) of over 100 µM. It also gave a TGI (HCT-116 colon) of over 100 µM, a TGI (HCT-15 colon) of over 100 µM and a TGI (HL-60(TB) leukemia) of over 100 µM. It also gave a TGI (HOP-18 NSCLC) of over 100 µM, a TGI (HOP-62 NSCLC) of over 100 µM and a TGI (HOP-92 NSCLC) of over 100 µM. For the same compound, the TGI (HT29 colon) was over 100 µM, the TGI (IGROV1 ovarian) was over 100 µM and the TGI (K-562 leukemia) was over 100 µM. The TGI (KM12 colon) was over 100 µM, the TGI (KM20L2 colon) was over 100 µM and the TGI (LOX IMVI melanoma) was over 100 µM. For the same compound, the TGI (LXFL 529 NSCLC) was over 100 µM, the TGI (M14 melanoma) was over 100 µM and the TGI (M19-MEL melanoma) was over 100 µM. For the same compound, the TGI (MALME-3M melanoma) was over 100 µM, the TGI (MOLT-4 leukemia) was over 100 µM and the TGI (NCI-H226 lung) was over 100 µM. For the same compound, the TGI (NCI-H23 lung) was over 100 µM, the TGI (NCI-H460 lung) was over 100 µM and the TGI (NCI-H522 lung) was over 100 µM. The TGI (OVCAR-3 ovarian) was over 100 µM, the TGI (OVCAR-4 ovarian) was over 100 µM and the TGI (OVCAR-5 ovarian) was over 100 µM. It also gave a TGI (OVCAR-8 ovarian) of over 100 µM, a TGI (RPMI-8226 leukemia) of over 100 µM and a TGI (RXF 393 renal) of over 100 µM. It also gave a TGI (RXF-631 renal) of over 100 µM, a TGI (SF-268 CNS) of over 100 µM and a TGI (SF-295 CNS) of over 100 µM. For the same compound, the TGI (SF-539 CNS) was over 100 µM, the TGI (SK-MEL-2 melanoma) was over 100 µM and the TGI (SK-MEL-28 melanoma) was over 100 µM. It also gave a TGI (SK-MEL-5 melanoma) of over 100 µM, a TGI (SK-OV-3 ovarian) of over 100 µM and a TGI (SN12C renal) of over 100 µM. For the same compound, the TGI (SNB-19 CNS) was over 100 µM, the TGI (SNB-75 CNS) was over 100 µM and the TGI (SNB-78 CNS) was over 100 µM. For the same compound, the TGI (SR leukemia) was over 100 µM, the TGI (SW-620 colon) was over 100 µM and the TGI (TK-10 renal) was over 100 µM. It also gave a TGI (U251 CNS) of over 100 µM, a TGI (UACC-257 melanoma) of over 100 µM and a TGI (UACC-62 melanoma) of over 100 µM. It also gave a TGI (UO-31 renal) of over 100 µM.
Work on `COC1=C(C(=O)OC(C)(C)C)[C@]2(C)C(C(=O)OC(C)(C)C)C(OC)=C(C(=O)OC(C)(C)C)[C@]2(C)C1C(=O)OC(C)(C)C` (stereo not given in full) yielded a TGI (786-0 renal) of over 100 µM, a TGI (A498 renal) of over 100 µM and a TGI (A549 NSCLC) of over 100 µM. The TGI (ACHN renal) was over 100 µM, the TGI (CAKI-1 renal) was over 100 µM and the TGI (CCRF-CEM leukemia) was over 100 µM. The TGI (COLO 205 colon) was over 100 µM, the TGI (DLD-1 colon) was over 100 µM and the TGI (DMS 114 small cell lung) was over 100 µM. The TGI (DMS 273 small cell lung) was over 100 µM, the TGI (EKVX NSCLC) was over 100 µM and the TGI (HCC-2998 colon) was over 100 µM. It also gave a TGI (HCT-116 colon) of over 100 µM, a TGI (HCT-15 colon) of over 100 µM and a TGI (HL-60(TB) leukemia) of over 100 µM. For the same compound, the TGI (HOP-18 NSCLC) was over 100 µM, the TGI (HOP-62 NSCLC) was over 100 µM and the TGI (HOP-92 NSCLC) was over 100 µM. For the same compound, the TGI (HT29 colon) was over 100 µM, the TGI (IGROV1 ovarian) was over 100 µM and the TGI (K-562 leukemia) was over 100 µM. The TGI (KM12 colon) was over 100 µM, the TGI (KM20L2 colon) was over 100 µM and the TGI (LOX IMVI melanoma) was over 100 µM. The TGI (LXFL 529 NSCLC) was over 100 µM, the TGI (M14 melanoma) was over 100 µM and the TGI (M19-MEL melanoma) was over 100 µM. It also gave a TGI (MALME-3M melanoma) of over 100 µM, a TGI (MOLT-4 leukemia) of over 100 µM and a TGI (NCI-H226 lung) of over 100 µM. The TGI (NCI-H23 lung) was over 100 µM, the TGI (NCI-H460 lung) was over 100 µM and the TGI (NCI-H522 lung) was over 100 µM. The TGI (OVCAR-3 ovarian) was over 100 µM, the TGI (OVCAR-4 ovarian) was over 100 µM and the TGI (OVCAR-5 ovarian) was over 100 µM. It also gave a TGI (OVCAR-8 ovarian) of over 100 µM, a TGI (RPMI-8226 leukemia) of over 100 µM and a TGI (RXF 393 renal) of over 100 µM. The TGI (SF-268 CNS) was over 100 µM, the TGI (SF-295 CNS) was over 100 µM and the TGI (SF-539 CNS) was over 100 µM. It also gave a TGI (SK-MEL-2 melanoma) of over 100 µM, a TGI (SK-MEL-5 melanoma) of over 100 µM and a TGI (SK-OV-3 ovarian) of over 100 µM. The TGI (SN12C renal) was over 100 µM, the TGI (SNB-19 CNS) was over 100 µM and the TGI (SNB-75 CNS) was over 100 µM. For the same compound, the TGI (SNB-78 CNS) was over 100 µM, the TGI (SR leukemia) was over 100 µM and the TGI (SW-620 colon) was over 100 µM. It also gave a TGI (TK-10 renal) of over 100 µM, a TGI (U251 CNS) of over 100 µM and a TGI (UACC-257 melanoma) of over 100 µM. The TGI (UACC-62 melanoma) was over 100 µM, the TGI (UO-31 renal) was over 100 µM and the TGI (XF 498 CNS) was over 100 µM.
